From patent publication US20210261642A1, “SOLUBILITY OF GLP-1 PEPTIDE” (Novo Nordisk A/S, priority 2017, published 2021)

Assay: Assay (I): Determination of Solubility (96-well plate, pH 3.0-11.0, organic solvent 0-70% w/w, UV absorption at 280 nm)
Assay type: physicochemical
Conditions: Method 1
Procedure: Assay (I): Determination of Solubility
96-Well Plate Preparation
96-well plates containing target peptide in a solid form were prepared in one of two ways:
Method 1 (evaporation): Addition of 100 μl stock solution of said peptide at a concentration of 4-6 mg/ml to each well of a 96-well half area plate (150 μl well size). Subsequently the solvent was evaporated by applying a vacuum until the solvent was completely removed.
Method 2 (precipitation): Addition of a certain volume of a stock solution of said peptide containing to each well of a 96-well half area plate followed by the addition of a certain volume of concentrated phosphoric acid to obtain a pH of 4.6 followed by addition of a certain volume of ethanol resulting in a final ethanol concentration of 20% v/v. Subsequently the plate was stored at 4° C. for 1 h and then centrifuged at 4,000 rpm for 20 min. Finally the supernatant was removed. The concentration of the stock solution was chosen in a way that the final amount of peptide after supernatant removal was >0.4 mg per well.
In both cases the stock solution was prepared by adding de-ionized water to a certain amount of powder of said peptide followed by a stepwise addition of small amounts of a concentrated sodium hydroxide solution until said peptide was completely in solution.
To determine solubility of a target peptide at different pH and organic solvent concentrations, two different buffer systems were used in independent experiments to cover the whole range from pH 3.0 to pH 11.0. Buffer system 1 covers pH 3.0-7.5 and buffer system 2 covers pH 7.5-11.0. For each buffer system 96 different solvent compositions were premixed in the following way: • 1. A low pH buffer (adjusted to either pH 3.0 or pH 7.5) and a high pH buffer (adjusted to either pH 7.5 or pH 11.0) were mixed at 8 different ratios to obtain values between pH 3.0 and pH 7.5 or pH 7.5 and pH 11.0, respectively. The total volume after mixing was 300 μl. • 2. 12 different amounts of organic solvent were then added to these buffers to obtain organic solvent (e.g. ethanol) concentrations between 0 and 70% w/w. • 3. Water was then added to obtain a total weight of 1.0 g of solvent in each well.
After preparing the 96 different solvent systems, 100 μl of each system was transferred to the 96-well plate containing the solid form of the target peptide (prepared as described in the section “96-well plate preparation”). The plate was then stored at a given temperature (between 5° C. and 70° C.) for a given time on a rotating shaker set to 400 rpm. At regular time intervals the plate was centrifuged (4,000 rpm for 10 min) and a 10 μl sample was taken from each well. The samples were then analysed by UV absorption at 280 nm for peptide quantification. Peptide concentration results are given as UV absorption at 280 nm of the sample subtracted UV absorption at 280 nm of a well comprising 10 μl water.
The buffers used were as follows: • Buffer system 1 (for the pH range from pH 3.0-7.5)
• Buffer system 2 (for the pH ranae from pH 7.5-11.0)
Solubility of liraglutide was determined using Assay (I) described herein. Liraglutide was prepared using Method 1 (evaporation) or Method 2 (precipitation) as described in subsection “96-well plate preparation”.

CCCCCCCCCCCCCCCC(=O)N[C@@H](CCC(=O)NCCCC[C@H](NC(=O)[C@H](C)NC(=O)[C@H](C)NC(=O)[C@H](CCC(N)=O)NC(=O)CNC(=O)[C@H](CCC(=O)O)NC(=O)[C@H](CC(C)C)NC(=O)[C@H](Cc1ccc(O)cc1)NC(=O)[C@H](CO)NC(=O)[C@H](CO)NC(=O)[C@@H](NC(=O)[C@H](CC(=O)O)NC(=O)[C@H](CO)NC(=O)[C@@H](NC(=O)[C@H](Cc1ccccc1)NC(=O)[C@@H](NC(=O)CNC(=O)[C@H](CCC(=O)O)NC(=O)[C@H](C)NC(=O)[C@@H](N)Cc1cnc[nH]1)[C@@H](C)O)[C@@H](C)O)C(C)C)C(=O)N[C@@H](CCC(=O)O)C(=O)N[C@@H](Cc1ccccc1)C(=O)N[C@H](C(=O)N[C@@H](C)C(=O)N[C@@H](Cc1c[nH]c2ccccc12)C(=O)N[C@@H](CC(C)C)C(=O)N[C@H](C(=O)N[C@@H](CCCNC(=N)N)C(=O)NCC(=O)N[C@@H](CCCNC(=N)N)C(=O)NCC(=O)O)C(C)C)[C@@H](C)CC)C(=O)O [liraglutide, Arg34,Lys26-(N-epsilon-(gamma-L-glutamyl(N-alfa-hexadecanoyl)))-GLP-1(7-37)]
Peptide concentration after 5 min (MeCN 19.1% w/w, pH 8.5, 5° C.): 1.2 mg/mL | Peptide concentration after 180 min (MeCN 19.1% w/w, pH 8.5, 5° C.): 2.5 mg/mL | Peptide concentration after 24 h (MeCN 19.1% w/w, pH 8.5, 5° C.): >4.0 mg/mL | Peptide concentration after 5 min (MeCN 19.1% w/w, pH 9.0, 5° C.): 0.9 mg/mL | Peptide concentration after 180 min (MeCN 19.1% w/w, pH 9.0, 5° C.): 2.3 mg/mL | Peptide concentration after 24 h (MeCN 19.1% w/w, pH 9.0, 5° C.): >4.0 mg/mL | Peptide concentration after 5 min (MeCN 19.1% w/w, pH 9.5, 5° C.): 1.1 mg/mL | Peptide concentration after 180 min (MeCN 19.1% w/w, pH 9.5, 5° C.): 3.3 mg/mL | Peptide concentration after 24 h (MeCN 19.1% w/w, pH 9.5, 5° C.): >4.0 mg/mL | Peptide concentration after 5 min (MeCN 19.1% w/w, pH 10.0, 5° C.): 1.4 mg/mL | Peptide concentration after 180 min (MeCN 19.1% w/w, pH 10.0, 5° C.): 3.8 mg/mL | Peptide concentration after 24 h (MeCN 19.1% w/w, pH 10.0, 5° C.): >4.0 mg/mL | Peptide concentration after 5 min (MeCN 19.1% w/w, pH 10.5, 5° C.): 1.4 mg/mL | Peptide concentration after 180 min (MeCN 19.1% w/w, pH 10.5, 5° C.): >4.0 mg/mL | Peptide concentration after 24 h (MeCN 19.1% w/w, pH 10.5, 5° C.): >4.0 mg/mL | Peptide concentration after 5 min (MeCN 19.1% w/w, pH 11.0, 5° C.): 1.0 mg/mL | Peptide concentration after 180 min (MeCN 19.1% w/w, pH 11.0, 5° C.): 2.6 mg/mL | Peptide concentration after 24 h (MeCN 19.1% w/w, pH 11.0, 5° C.): >4.0 mg/mL | Peptide concentration after 5 min (MeCN 25.5% w/w, pH 8.0, 5° C.): 1.1 mg/mL | Peptide concentration after 180 min (MeCN 25.5% w/w, pH 8.0, 5° C.): 3.2 mg/mL | Peptide concentration after 24 h (MeCN 25.5% w/w, pH 8.0, 5° C.): >4.0 mg/mL | Peptide concentration after 5 min (MeCN 25.5% w/w, pH 8.5, 5° C.): 1.4 mg/mL | Peptide concentration after 180 min (MeCN 25.5% w/w, pH 8.5, 5° C.): 3.5 mg/mL | Peptide concentration after 24 h (MeCN 25.5% w/w, pH 8.5, 5° C.): >4.0 mg/mL | Peptide concentration after 5 min (MeCN 25.5% w/w, pH 9.0, 5° C.): 0.5 mg/mL | Peptide concentration after 180 min (MeCN 25.5% w/w, pH 9.0, 5° C.): >4.0 mg/mL | Peptide concentration after 24 h (MeCN 25.5% w/w, pH 9.0, 5° C.): >4.0 mg/mL | Peptide concentration after 5 min (MeCN 25.5% w/w, pH 9.5, 5° C.): 1.2 mg/mL | Peptide concentration after 180 min (MeCN 25.5% w/w, pH 9.5, 5° C.): >4.0 mg/mL | Peptide concentration after 24 h (MeCN 25.5% w/w, pH 9.5, 5° C.): >4.0 mg/mL | Peptide concentration after 5 min (MeCN 25.5% w/w, pH 10.0, 5° C.): 1.4 mg/mL | Peptide concentration after 180 min (MeCN 25.5% w/w, pH 10.0, 5° C.): 3.4 mg/mL | Peptide concentration after 24 h (MeCN 25.5% w/w, pH 10.0, 5° C.): >4.0 mg/mL | Peptide concentration after 5 min (MeCN 25.5% w/w, pH 10.5, 5° C.): 1.5 mg/mL | Peptide concentration after 180 min (MeCN 25.5% w/w, pH 10.5, 5° C.): 3.8 mg/mL | Peptide concentration after 24 h (MeCN 25.5% w/w, pH 10.5, 5° C.): >4.0 mg/mL | Peptide concentration after 5 min (MeCN 25.5% w/w, pH 11.0, 5° C.): 1.0 mg/mL | Peptide concentration after 180 min (MeCN 25.5% w/w, pH 11.0, 5° C.): 3.1 mg/mL | Peptide concentration after 24 h (MeCN 25.5% w/w, pH 11.0, 5° C.): >4.0 mg/mL | Peptide concentration after 5 min (MeCN 31.8% w/w, pH 8.0, 5° C.): 0.9 mg/mL | Peptide concentration after 180 min (MeCN 31.8% w/w, pH 8.0, 5° C.): 2.7 mg/mL | Peptide concentration after 24 h (MeCN 31.8% w/w, pH 8.0, 5° C.): >4.0 mg/mL | Peptide concentration after 5 min (MeCN 31.8% w/w, pH 8.5, 5° C.): 2.1 mg/mL | Peptide concentration after 180 min (MeCN 31.8% w/w, pH 8.5, 5° C.): 3.6 mg/mL | Peptide concentration after 24 h (MeCN 31.8% w/w, pH 8.5, 5° C.): >4.0 mg/mL | Peptide concentration after 5 min (MeCN 31.8% w/w, pH 9.0, 5° C.): 0.8 mg/mL | Peptide concentration after 180 min (MeCN 31.8% w/w, pH 9.0, 5° C.): 2.7 mg/mL | Peptide concentration after 24 h (MeCN 31.8% w/w, pH 9.0, 5° C.): >4.0 mg/mL | Peptide concentration after 5 min (MeCN 31.8% w/w, pH 9.5, 5° C.): 0.9 mg/mL | Peptide concentration after 180 min (MeCN 31.8% w/w, pH 9.5, 5° C.): 3.3 mg/mL | Peptide concentration after 24 h (MeCN 31.8% w/w, pH 9.5, 5° C.): >4.0 mg/mL
